In ChEMBL document CHEMBL3045432, “Synthesis and Fungicidal Activity of -Cyanoacetamide Derivatives: Discovery of a New Rice Blast Fungicide, Diclocymet (S-2900)” (2002):
≈ marks a conversion by molar mass, not a printed value.

Legend:
Assay type in all cases: functional
Pyricularia grisea [1] = test: Fungicidal activity against Magnaporthe grisea in rice plant assessed as prevention from rice blast disease measured as lesions under greenhouse at > 200 ppm for 8 days by foliar spray compound treated before inoculation
Pyricularia grisea [2] = test: Fungicidal activity against Magnaporthe grisea in rice plant assessed as prevention from rice blast disease measured as lesions under greenhouse at > 200 ppm for 8 days by soil drench compound treated before inoculation
Pyricularia grisea [3] = test: Fungicidal activity against Magnaporthe grisea in rice plant assessed as prevention from rice blast disease measured as lesions under greenhouse at 50 ppm for 8 days by foliar spray compound treated before inoculation
Pyricularia grisea [4] = test: Fungicidal activity against Magnaporthe grisea in rice plant assessed as prevention from rice blast disease measured as lesions under greenhouse at 200 ppm for 8 days by soil drench compound treated before inoculation
Pyricularia grisea [5] = test: Fungicidal activity against Magnaporthe grisea in rice plant assessed as prevention from rice blast disease measured as lesions under greenhouse at 3.1 ppm for 8 days by foliar spray compound treated before inoculation
Pyricularia grisea [6] = test: Fungicidal activity against Magnaporthe grisea in rice plant assessed as prevention from rice blast disease measured as lesions under greenhouse at 12.5 ppm for 8 days by soil drench compound treated before inoculation
Pyricularia grisea [7] = test: Fungicidal activity against Magnaporthe grisea in rice plant assessed as prevention from rice blast disease measured as lesions under greenhouse at 200 ppm for 8 days by foliar spray compound treated before inoculation
Pyricularia grisea [8] = test: Fungicidal activity against Magnaporthe grisea in rice plant assessed as prevention from rice blast disease measured as lesions under greenhouse at 50 ppm for 8 days by soil drench compound treated before inoculation
Pyricularia grisea [9] = test: Fungicidal activity against Magnaporthe grisea in rice plant assessed as rice blast disease measured as damage under greenhouse by foliar spray for 8 days compound treated before inoculation; details: 192 h
Pyricularia grisea [10] = test: Fungicidal activity against Magnaporthe grisea in rice plant assessed as rice blast disease measured as damage under greenhouse at 25 ppm for 8 days by foliar spray compound treated before inoculation
Pyricularia grisea [11] = test: Fungicidal activity against Magnaporthe grisea in rice plant assessed as rice blast disease measured as damage under greenhouse at 6.3 ppm for 8 days by foliar spray compound treated before inoculation
Pyricularia grisea [12] = test: Fungicidal activity against Magnaporthe grisea in rice plant assessed as rice blast disease measured as damage under greenhouse at 1.6 ppm for 8 days by foliar spray compound treated before inoculation
Pyricularia grisea [13] = test: Fungicidal activity against Magnaporthe grisea in rice plant assessed as rice blast disease measured as damage under greenhouse at 0.4 ppm for 8 days by foliar spray compound treated before inoculation

Structure (SMILES)	Activity (Pyricularia grisea [1])	Activity (Pyricularia grisea [2])	Activity (Pyricularia grisea [7])	Activity (Pyricularia grisea [8])	further results
CC(C)NC(=O)C(C#N)C(C)(C)C (stereo not given)	<=10%	<=10%	–	–	–
CCC(CC)=C(C#N)C(=O)NC(C)c1ccc(Cl)cc1 (stereo not given)	–	–	–	–	Activity (Pyricularia grisea [3]): <=10%; Activity (Pyricularia grisea [4]): <=10%
CC(NC(=O)C(C#N)C(C)(C)C)c1ccc(Cl)cc1 (stereo not given)	–	–	–	–	Activity (Pyricularia grisea [5]): <=10%; Activity (Pyricularia grisea [6]): <=10%
CC(NC(=O)C(C#N)C(C)(C)C)c1cccc(Cl)c1 (stereo not given)	–	–	<=10%	–	Activity (Pyricularia grisea [4]): <=10%
CC(NC(=O)C(Br)(C#N)C(C)(C)C)c1ccc(Cl)cc1 (stereo not given)	–	–	<=10%	<=10%	–
CC(NC(=O)C(C#N)C(C)(C)C)c1ccc(C(F)(F)F)cc1 (stereo not given)	–	–	–	<=10%	Activity (Pyricularia grisea [5]): <=10%
CC(NC(=O)C(C)(C)C#N)c1ccc(Cl)cc1 (stereo not given)	<=10%	<=10%	–	–	–
CC(NC(=O)C([S+](C)[O-])C(C)(C)C)c1ccc(Cl)cc1 (stereo not given)	<=10%	<=10%	–	–	–
C[C@@H](NC(=O)[C@H](C#N)C(C)(C)C)c1ccc(Cl)cc1Cl	–	–	–	–	MIC (Pyricularia grisea [9]): 0.04 µg/mL (≈ 0.128 µM); Activity (Pyricularia grisea [10]): 5%; Activity (Pyricularia grisea [11]): 4%; Activity (Pyricularia grisea [12]): 4%; Activity (Pyricularia grisea [13]): 3%
CC(NC(=O)C(C#N)C(C)(C)C)c1ccc(Cl)cc1Cl (stereo not given)	–	–	–	<=10%	Activity (Pyricularia grisea [5]): <=10%
CC(NC(=O)C(C#N)=C1CCCCC1)c1ccc(Cl)cc1 (stereo not given)	<=10%	<=10%	–	–	–
CC(NC(=O)C1(C#N)CCCC1)c1ccc(Cl)cc1 (stereo not given)	<=10%	<=10%	–	–	–
CC(NC(=O)C(C#N)C(C)(C)C)c1ccccc1 (stereo not given)	–	<=10%	<=10%	–	–
CC(NC(=O)C(O)C(C)(C)C)c1ccc(Cl)cc1 (stereo not given)	<=10%	<=10%	<=10%	–	–
C[C@@H](NC(=O)[C@@H](C#N)C(C)(C)C)c1ccc(Cl)cc1Cl	–	–	–	–	MIC (Pyricularia grisea [9]): 0.16 µg/mL (≈ 0.511 µM); Activity (Pyricularia grisea [10]): 4%; Activity (Pyricularia grisea [11]): 3%; Activity (Pyricularia grisea [12]): 2%; Activity (Pyricularia grisea [13]): 0%
O=C1OCc2c(Cl)c(Cl)c(Cl)c(Cl)c21 [4,5,6,7-TETRACHLOROPHTHALIDE]	–	–	–	–	Activity (Pyricularia grisea [10]): 4%; Activity (Pyricularia grisea [11]): 1%; Activity (Pyricularia grisea [12]): 0%; Activity (Pyricularia grisea [13]): 0%
CC(NC(=O)C(C#N)C(C)(C)C)c1ccc(Cl)nc1 (stereo not given)	–	<=10%	<=10%	–	–

Structure (SMILES)	Activity (Pyricularia grisea [1])	Activity (Pyricularia grisea [2])	Activity (Pyricularia grisea [7])	Activity (Pyricularia grisea [8])	further results
CC(NC(=O)C(C#N)C(C)C)c1ccc(Cl)cc1 (stereo not given)	–	–	<=10%	<=10%	–
CC(NC(=O)C(C#N)C(C)(C)C)c1ccc(Cl)cn1 (stereo not given)	<=10%	<=10%	–	–	–
CC(NC(=O)C(C#N)C1CCCCC1)c1ccc(Cl)cc1 (stereo not given)	–	<=10%	<=10%	–	–
CC(NC(=O)C(C#N)C(C)(C)C)c1ccc(Cl)c(Cl)c1 (stereo not given)	–	–	–	<=10%	Activity (Pyricularia grisea [3]): <=10%
CC(NC(=O)C(C#N)C(C)(C)C)c1ccc(Br)cc1 (stereo not given)	–	–	–	–	Activity (Pyricularia grisea [5]): <=10%; Activity (Pyricularia grisea [6]): <=10%
C=CC(C)(C)C(C#N)C(=O)NC(C)c1ccc(Cl)cc1 (stereo not given)	–	–	–	–	Activity (Pyricularia grisea [5]): <=10%; Activity (Pyricularia grisea [6]): <=10%
CC(NC(=O)C(C#N)C(C)(C)C)c1ccc(OC(F)(F)F)cc1 (stereo not given)	–	–	–	<=10%	Activity (Pyricularia grisea [3]): <=10%
CCC(CC)C(C#N)C(=O)NC(C)c1ccc(Cl)cc1 (stereo not given)	–	–	–	<=10%	Activity (Pyricularia grisea [5]): <=10%
CC(NC(=O)C(C(C)(C)C)S(C)(=O)=O)c1ccc(Cl)cc1 (stereo not given)	–	<=10%	<=10%	–	–
CC(NC(=O)C(C)(C#N)C(C)C)c1ccc(Cl)cc1 (stereo not given)	<=10%	<=10%	–	–	–
CC(NC(=O)C1(C#N)CC1(C)C)c1ccc(Cl)cc1 (stereo not given)	<=10%	<=10%	–	–	–
CCC(C#N)(CC)C(=O)NC(C)c1ccc(Cl)cc1 (stereo not given)	<=10%	<=10%	–	–	–
CC(NC(=O)C(C#N)CC(C)(C)C)c1ccc(Cl)cc1 (stereo not given)	–	–	<=10%	<=10%	–
CC(NC(=O)C(C#N)C(C)(C)C)c1ccc(OC(F)F)cc1 (stereo not given)	–	–	–	<=10%	Activity (Pyricularia grisea [3]): <=10%
CC(C)(C)C(C#N)C(=O)NCCc1ccc(Cl)cc1 (stereo not given)	–	<=10%	<=10%	–	–
CCC(C)C(C#N)C(=O)NC(C)c1ccc(Cl)cc1 (stereo not given)	–	–	–	<=10%	Activity (Pyricularia grisea [3]): <=10%
